Values quoted from earlier work in PubChem BioAssay AID1259409 (Chemical Carcinogenesis Research Information System (CCRIS), 2018).

Test system: rodent chemically induced tumor inhibition, incidence and multiplicity
Experiment: CCRIS tumor inhibitor studies

Which “tumour outcome (control, treated, inhibition, significance)” value (Carcinogen: N-NITROSOBIS(2-OXOPROPYL)AMINE, 60599-38-4, Dose [Inhibitor]: 0, 0.2% IN DRINKING WATER FOR 49 WK POST CARCINOGEN TREATMENT (STUDY DURATION: 52 WK), Route [Inhibitor]: ORAL, Species: HAMSTER, Strain/Sex: SYRIAN GOLDEN/FEMALE, Target Tissue: Type of Lesion: TRACHEA: PAPILLOMA, Dose [Carcinogen]: 10 MG/KG BW 1/WK FOR FIRST 3 WK OF STUDY DURATION, Promoter: NONE) does the source give for `NC(=O)c1cccnc1` here?
Its value is 1/30 (3%), 0/29 (0%), 100%, not significant.

And the “tumour outcome (control, treated, inhibition, significance)” value (Carcinogen: N-NITROSOBIS(2-OXOPROPYL)AMINE, 60599-38-4, Dose [Inhibitor]: 0, 0.5% IN DRINKING WATER FOR 49 WK BEGINNING POST CARCINOGEN TREATMENT (STUDY DURATION: 52 WK), Route [Inhibitor]: ORAL, Species: HAMSTER, Strain/Sex: SYRIAN/FEMALE, Target Tissue: Type of Lesion: PANCREAS: ADENOCARCINOMA, Dose [Carcinogen]: 10 MG/KG 1/WK FOR 3 WK, Promoter: NONE)?
Its value is 18/30 (60%), 21/30 (70%), -17%, not significant.

What about the “tumour outcome (control, treated, inhibition, significance)” value (Carcinogen: N-NITROSOBIS(2-OXOPROPYL)AMINE, 60599-38-4, Dose [Inhibitor]: 0, 0.5% IN DRINKING WATER FOR 49 WK POST CARCINOGEN TREATMENT (STUDY DURATION: 52 WK), Route [Inhibitor]: ORAL, Species: HAMSTER, Strain/Sex: SYRIAN GOLDEN/FEMALE, Target Tissue: Type of Lesion: KIDNEY: NEPHROBLASTOMA, Dose [Carcinogen]: 10 MG/KG BW 1/WK FOR FIRST 3 WK OF STUDY DURATION, Promoter: NONE) of the same molecule?
Its value is 2/30 (7%), 0/30 (0%), 100%, not significant.

What about the outcome (Carcinogen: N-NITROSOBIS(2-OXOPROPYL)AMINE, 60599-38-4, Dose [Inhibitor]: 0, 0.5% IN DRINKING WATER FOR 49 WK POST CARCINOGEN TREATMENT (STUDY DURATION: 52 WK), Route [Inhibitor]: ORAL, Species: HAMSTER, Strain/Sex: SYRIAN GOLDEN/FEMALE, Target Tissue: Type of Lesion: KIDNEY: RENAL CELL ADENOMA, Dose [Carcinogen]: 10 MG/KG BW 1/WK FOR FIRST 3 WK OF STUDY DURATION, Promoter: NONE) of the same molecule?
Its outcome is 0/30 (0%), 2/30 (7%), -100%, not significant.

And the “tumour outcome (control, treated, inhibition, significance)” value (Carcinogen: N-NITROSOBIS(2-OXOPROPYL)AMINE, 60599-38-4, Dose [Inhibitor]: 0, 0.5% IN DRINKING WATER FOR 49 WK POST CARCINOGEN TREATMENT (STUDY DURATION: 52 WK), Route [Inhibitor]: ORAL, Species: HAMSTER, Strain/Sex: SYRIAN GOLDEN/FEMALE, Target Tissue: Type of Lesion: KIDNEY: RENAL CELL CARCINOMA, Dose [Carcinogen]: 10 MG/KG BW 1/WK FOR FIRST 3 WK OF STUDY DURATION, Promoter: NONE)?
Its value is 1/30 (3%), 2/30 (7%), -133%, not significant.

What about the “tumour outcome (control, treated, inhibition, significance)” value (Carcinogen: N-NITROSOBIS(2-OXOPROPYL)AMINE, 60599-38-4, Dose [Inhibitor]: 0, 0.5% IN DRINKING WATER FOR 49 WK POST CARCINOGEN TREATMENT (STUDY DURATION: 52 WK), Route [Inhibitor]: ORAL, Species: HAMSTER, Strain/Sex: SYRIAN GOLDEN/FEMALE, Target Tissue: Type of Lesion: LIVER: CHOLANGIOCELLULAR ADENOMA, Dose [Carcinogen]: 10 MG/KG BW 1/WK FOR FIRST 3 WK OF STUDY DURATION, Promoter: NONE) of the same molecule?
The value was 1/30 (3%), 3/30 (10%), -233%, not significant.

What about the outcome (Carcinogen: N-NITROSOBIS(2-OXOPROPYL)AMINE, 60599-38-4, Dose [Inhibitor]: 0, 0.5% IN DRINKING WATER FOR 49 WK POST CARCINOGEN TREATMENT (STUDY DURATION: 52 WK), Route [Inhibitor]: ORAL, Species: HAMSTER, Strain/Sex: SYRIAN GOLDEN/FEMALE, Target Tissue: Type of Lesion: LIVER: CHOLANGIOCELLULAR CARCINOMA, Dose [Carcinogen]: 10 MG/KG BW 1/WK FOR FIRST 3 WK OF STUDY DURATION, Promoter: NONE) of the same molecule?
The outcome was 0/30 (0%), 3/30 (10%), -%, not significant.

And the outcome (Carcinogen: N-NITROSOBIS(2-OXOPROPYL)AMINE, 60599-38-4, Dose [Inhibitor]: 0, 0.5% IN DRINKING WATER FOR 49 WK POST CARCINOGEN TREATMENT (STUDY DURATION: 52 WK), Route [Inhibitor]: ORAL, Species: HAMSTER, Strain/Sex: SYRIAN GOLDEN/FEMALE, Target Tissue: Type of Lesion: LIVER: CYSTADENOMA, Dose [Carcinogen]: 10 MG/KG BW 1/WK FOR FIRST 3 WK OF STUDY DURATION, Promoter: NONE)?
Its outcome is 0/30 (0%), 2/30 (7%), -%, not significant.

And the “tumour outcome (control, treated, inhibition, significance)” value (Carcinogen: N-NITROSOBIS(2-OXOPROPYL)AMINE, 60599-38-4, Dose [Inhibitor]: 0, 0.5% IN DRINKING WATER FOR 49 WK POST CARCINOGEN TREATMENT (STUDY DURATION: 52 WK), Route [Inhibitor]: ORAL, Species: HAMSTER, Strain/Sex: SYRIAN GOLDEN/FEMALE, Target Tissue: Type of Lesion: LIVER: HEPATOCELLULAR ADENOMA, Dose [Carcinogen]: 10 MG/KG BW 1/WK FOR FIRST 3 WK OF STUDY DURATION, Promoter: NONE)?
Its value is 2/30 (7%), 4/30 (13%), -86%, not significant.

And the “tumour outcome (control, treated, inhibition, significance)” value (Carcinogen: N-NITROSOBIS(2-OXOPROPYL)AMINE, 60599-38-4, Dose [Inhibitor]: 0, 0.5% IN DRINKING WATER FOR 49 WK POST CARCINOGEN TREATMENT (STUDY DURATION: 52 WK), Route [Inhibitor]: ORAL, Species: HAMSTER, Strain/Sex: SYRIAN GOLDEN/FEMALE, Target Tissue: Type of Lesion: LIVER: HEPATOCELLULAR CARCINOMA, Dose [Carcinogen]: 10 MG/KG BW 1/WK FOR FIRST 3 WK OF STUDY DURATION, Promoter: NONE)?
Its value is 2/30 (7%), 2/30 (7%), 0%, not significant.

What about the “tumour outcome (control, treated, inhibition, significance)” value (Carcinogen: N-NITROSOBIS(2-OXOPROPYL)AMINE, 60599-38-4, Dose [Inhibitor]: 0, 0.5% IN DRINKING WATER FOR 49 WK POST CARCINOGEN TREATMENT (STUDY DURATION: 52 WK), Route [Inhibitor]: ORAL, Species: HAMSTER, Strain/Sex: SYRIAN GOLDEN/FEMALE, Target Tissue: Type of Lesion: LUNG: ADENOCARCINOMA, Dose [Carcinogen]: 10 MG/KG BW 1/WK FOR FIRST 3 WK OF STUDY DURATION, Promoter: NONE) of the same molecule?
The value was 11/30 (37%), 9/30 (30%), 19%, not significant.

And the “tumour outcome (control, treated, inhibition, significance)” value (Carcinogen: N-NITROSOBIS(2-OXOPROPYL)AMINE, 60599-38-4, Dose [Inhibitor]: 0, 0.5% IN DRINKING WATER FOR 49 WK POST CARCINOGEN TREATMENT (STUDY DURATION: 52 WK), Route [Inhibitor]: ORAL, Species: HAMSTER, Strain/Sex: SYRIAN GOLDEN/FEMALE, Target Tissue: Type of Lesion: LUNG: ADENOMA, Dose [Carcinogen]: 10 MG/KG BW 1/WK FOR FIRST 3 WK OF STUDY DURATION, Promoter: NONE)?
The value was 15/30 (50%), 17/30 (56.7%), -13%, not significant.

And the “tumour outcome (control, treated, inhibition, significance)” value (Carcinogen: N-NITROSOBIS(2-OXOPROPYL)AMINE, 60599-38-4, Dose [Inhibitor]: 0, 0.5% IN DRINKING WATER FOR 49 WK POST CARCINOGEN TREATMENT (STUDY DURATION: 52 WK), Route [Inhibitor]: ORAL, Species: HAMSTER, Strain/Sex: SYRIAN GOLDEN/FEMALE, Target Tissue: Type of Lesion: LUNG: SQUAMOUS CELL CARCINOMA, Dose [Carcinogen]: 10 MG/KG BW 1/WK FOR FIRST 3 WK OF STUDY DURATION, Promoter: NONE)?
Its value is 2/30 (7%), 2/30 (7%), 0%, not significant.

And the “tumour outcome (control, treated, inhibition, significance)” value (Carcinogen: N-NITROSOBIS(2-OXOPROPYL)AMINE, 60599-38-4, Dose [Inhibitor]: 0, 0.5% IN DRINKING WATER FOR 49 WK POST CARCINOGEN TREATMENT (STUDY DURATION: 52 WK), Route [Inhibitor]: ORAL, Species: HAMSTER, Strain/Sex: SYRIAN GOLDEN/FEMALE, Target Tissue: Type of Lesion: PANCREAS (DUCTAL): ADENOCARCINOMA, Dose [Carcinogen]: 10 MG/KG BW 1/WK FOR FIRST 3 WK OF STUDY DURATION, Promoter: NONE)?
The value was 18/30 (60%), 21/30 (70%), -17%, not significant.

And the “tumour outcome (control, treated, inhibition, significance)” value (Carcinogen: N-NITROSOBIS(2-OXOPROPYL)AMINE, 60599-38-4, Dose [Inhibitor]: 0, 0.5% IN DRINKING WATER FOR 49 WK POST CARCINOGEN TREATMENT (STUDY DURATION: 52 WK), Route [Inhibitor]: ORAL, Species: HAMSTER, Strain/Sex: SYRIAN GOLDEN/FEMALE, Target Tissue: Type of Lesion: THYROID: ADENOMA, Dose [Carcinogen]: 10 MG/KG BW 1/WK FOR FIRST 3 WK OF STUDY DURATION, Promoter: NONE)?
Its value is 1/30 (3%), 0/30 (0%), 100%, not significant.

And the “tumour outcome (control, treated, inhibition, significance)” value (Carcinogen: N-NITROSOBIS(2-OXOPROPYL)AMINE, 60599-38-4, Dose [Inhibitor]: 0, 350 MG/KG 10 MIN PRIOR TO AND 3 HR POST CARCINOGEN DOSE (STUDY DURATION: 52 WK), Route [Inhibitor]: INTRAPERITONEAL, Species: HAMSTER, Strain/Sex: SYRIAN/MALE, FEMALE, Target Tissue: Type of Lesion: PANCREAS: DUCTAL/DUCTULAR CARCINOMA, Dose [Carcinogen]: 10 MG/KG ONCE, Promoter: NONE USED)?
The value was 5/60 (8%), 0/35 (0%), 100%, p<0.0001.

And the “tumour outcome (control, treated, inhibition, significance)” value (Carcinogen: N-NITROSOBIS(2-OXOPROPYL)AMINE, 60599-38-4, Dose [Inhibitor]: 0, 350 MG/KG 10 MIN PRIOR TO AND 3 HR POST CARCINOGEN DOSE (STUDY DURATION: 52 WK), Route [Inhibitor]: INTRAPERITONEAL, Species: HAMSTER, Strain/Sex: SYRIAN/MALE, FEMALE, Target Tissue: Type of Lesion: PANCREAS: DUCTULAR ADENOMA, Dose [Carcinogen]: 10 MG/KG ONCE, Promoter: NONE USED)?
The value was 25/60 (42%), 5/35 (14%), 67%, p=0.05.

What about the “tumour outcome (control, treated, inhibition, significance)” value (Carcinogen: URETHANE, 51-79-6, Dose [Inhibitor]: 1.0% (1.02 MG/G BW/D) IN POWDERED DIET FOR 10 D POST CARCINOGEN DOSE (STUDY DURATION: 5 MO), Route [Inhibitor]: ORAL, Species: MOUSE, Strain/Sex: ICR/FEMALE, Target Tissue: Type of Lesion: LUNG: TUMOR, Dose [Carcinogen]: 1 MG/G ONCE, Promoter: NONE USED) of the same molecule?
The value was 27/31 (87%), 47/51 (92%), -6%, not calculated.

And the “tumour outcome (control, treated, inhibition, significance)” value (Carcinogen: URETHANE, 51-79-6, Dose [Inhibitor]: 2.5% (2.83 MG/G BW/D) IN POWDERED DIET FOR 10 D POST CARCINOGEN DOSE (STUDY DURATION: 5 MO), Route [Inhibitor]: ORAL, Species: MOUSE, Strain/Sex: ICR/FEMALE, Target Tissue: Type of Lesion: LUNG: TUMOR, Dose [Carcinogen]: 1 MG/G ONCE, Promoter: NONE USED)?
Its value is 27/31 (87%), 47/54 (87%), 0%, not calculated.
